# Assay results reported in ChEMBL document CHEMBL1201862, “PubChem BioAssay data set” (2004).
#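 Cultured in 96-well plates, cells were exposed to test compound for 48 hours across five concentrations. GI50: concentration for 50% inhibition of growth.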 Active and inactive are the calls of the source. Cut-off read from the data, not from the text of the source: active = GI50 up to about 1.1 µM and inactive = higher.
# Tests used:
# Test in all cases: NCI anticancer screen, dose series, 48 h
# 786-0 = tested on: 786-0
# A498 = tested on: A498
# A549 = tested on: A549
# ACHN = tested on: ACHN
# CAKI-1 = tested on: CAKI-1
# CCRF-CEM = tested on: CCRF-CEM
# COLO 205 = tested on: COLO 205
# DLD-1 = tested on: DLD-1
# DMS-114 = tested on: DMS-114
# DMS-273 = tested on: DMS-273
# EKVX = tested on: EKVX
# HCC 2998 = tested on: HCC 2998
# HCT-116 = tested on: HCT-116
# HCT-15 = tested on: HCT-15
# HL-60 = tested on: HL-60
# HOP-62 = tested on: HOP-62
# HOP-92 = tested on: HOP-92
# IGROV-1 = tested on: IGROV-1
# K562 = tested on: K562
# KM12 = tested on: KM12
# LOX IMVI = tested on: LOX IMVI
# LXFL 529 = tested on: LXFL 529
# M14 = tested on: M14
# M19-MEL = tested on: M19-MEL
# MOLT-4 = tested on: MOLT-4
# Malme-3M = tested on: Malme-3M
# NCI-H23 = tested on: NCI-H23
# NCI-H460 = tested on: NCI-H460
# NCI-H522 = tested on: NCI-H522
# OVCAR-3 = tested on: OVCAR-3
# OVCAR-4 = tested on: OVCAR-4
# OVCAR-5 = tested on: OVCAR-5
# OVCAR-8 = tested on: OVCAR-8
# RPMI-8226 = tested on: RPMI-8226
# RXF 393 = tested on: RXF 393
# SF-268 = tested on: SF-268
# SF-295 = tested on: SF-295
# SF-539 = tested on: SF-539
# SK-MEL-28 = tested on: SK-MEL-28
# SK-MEL-2 = tested on: SK-MEL-2
# SK-MEL-5 = tested on: SK-MEL-5
# SK-OV-3 = tested on: SK-OV-3
# SN12C = tested on: SN12C
# SNB-19 = tested on: SNB-19
# SNB-75 = tested on: SNB-75
# SNB-78 = tested on: SNB-78
# SW-620 = tested on: SW-620
# TK-10 = tested on: TK-10
# U-251 = tested on: U-251
# UACC-257 = tested on: UACC-257
# UACC-62 = tested on: UACC-62
# UO-31 = tested on: UO-31
# XF498 = tested on: XF498
structure (smiles),measurement,setting,value
O=c1ccc(=O)c2c(=O)c3ccccc3c(=O)c1=2,GI50,786-0,39.7 µM (inactive)
same,GI50,A498,> 100 µM (inactive)
same,GI50,A549,37.4 µM (inactive)
same,GI50,ACHN,60.3 µM (inactive)
same,GI50,CAKI-1,50 µM (inactive)
same,GI50,CCRF-CEM,33 µM (inactive)
same,GI50,COLO 205,99.3 µM (inactive)
same,GI50,DLD-1,38.2 µM (inactive)
same,GI50,DMS-114,29 µM (inactive)
same,GI50,DMS-273,46.7 µM (inactive)
same,GI50,EKVX,28.7 µM (inactive)
same,GI50,HCC 2998,54.7 µM (inactive)
same,GI50,HCT-116,20.7 µM (inactive)
same,GI50,HCT-15,46.2 µM
same,GI50,HL-60,17.2 µM (inactive)
same,GI50,HOP-62,36.6 µM (inactive)
same,GI50,HOP-92,> 100 µM (inactive)
same,GI50,IGROV-1,> 100 µM (inactive)
same,GI50,K562,> 100 µM (inactive)
same,GI50,KM12,37.1 µM (inactive)
same,GI50,LOX IMVI,42.6 µM (inactive)
same,GI50,LXFL 529,> 100 µM (inactive)
same,GI50,M14,46 µM (inactive)
same,GI50,M19-MEL,14.3 µM (inactive)
same,GI50,MOLT-4,23 µM (inactive)
same,GI50,Malme-3M,26.5 µM (inactive)
same,GI50,NCI-H23,70.3 µM (inactive)
same,GI50,NCI-H460,29.3 µM (inactive)
same,GI50,NCI-H522,29.8 µM (inactive)
same,GI50,OVCAR-3,21.2 µM (inactive)
same,GI50,OVCAR-4,61 µM (inactive)
same,GI50,OVCAR-5,> 100 µM (inactive)
same,GI50,OVCAR-8,27.5 µM (inactive)
same,GI50,RPMI-8226,27.5 µM (inactive)
same,GI50,RXF 393,48.3 µM (inactive)
same,GI50,SF-268,35.6 µM (inactive)
same,GI50,SF-295,34.4 µM (inactive)
same,GI50,SF-539,26 µM (inactive)
same,GI50,SK-MEL-28,> 100 µM (inactive)
same,GI50,SK-MEL-2,20.8 µM (inactive)
same,GI50,SK-MEL-5,15.7 µM (inactive)
same,GI50,SK-OV-3,> 100 µM (inactive)
same,GI50,SN12C,38.5 µM (inactive)
same,GI50,SNB-19,41.3 µM (inactive)
same,GI50,SNB-75,> 100 µM (inactive)
same,GI50,SNB-78,60.5 µM (inactive)
same,GI50,SW-620,32.7 µM (inactive)
same,GI50,TK-10,> 100 µM (inactive)
same,GI50,U-251,43.6 µM (inactive)
same,GI50,UACC-257,30.8 µM (inactive)
same,GI50,UACC-62,36.7 µM (inactive)
same,GI50,UO-31,57.8 µM (inactive)
same,GI50,XF498,> 100 µM (inactive)
